Experimental data: patent US20250049698A1, “BIOACTIVE SERUM FRACTIONS FROM FRESH ROSE FLOWERS AND METHODS FOR THEIR PREPARATION AND USES” (ISP INVESTMENTS LLC, priority 2021, published 2025)

Test: DPPH free radical scavenging assay
Format: biochemical
Settings: positive control; dilution from 5% (w/v) stock solution
Text: DPPH assay provides an easy and rapid way to evaluate potential antioxidants. A free radical is an atom or molecule that has one or more unpaired electrons. The evidence is that reactive species of oxygen (O2-, H2O2, and NO2+) play an important role in inflammation, neurodegenerative disorders, and cancer, etc. Antioxidants can react with the nitrogen centered radical DPPH (2,2-Diphenyl-1-Picrylhydrazyl) and convert it to the non-radical 2,2-Diphenyl-1-Picrylhydrazine. The changes in color (from deep violet to light yellow) were read at 517 nm after 60 min of reaction using a UV/VIS Spectrophotometer. DPPH free radical scavenging method offers the first approach for evaluating the antioxidant potential of a compound or extract. DPPH free radical scavenging activity was determined to assess antioxidant activities for test articles by following protocol. DPPH (Sigma-Aldrich, 300267, St. Louis, MO, USA) solution of 0.06 mM in absolute methanol was prepared. Test articles with different concentrations (20 μl) were mixed with 180 μl of DPPH solution to obtain a total of 200 μl per well in a 96-well plate. After 60 min incubation at room temperature in the dark, the absorbance was measured at 517 nm by using a microplate spectrophotometer Biotek Synergy 2 (Biotek Instruments Inc, Winooski, VT, USA). […] The ability to scavenge DPPH radicle was calculated as % inhibition. […]

O=C1O[C@H]([C@@H](O)CO)C(O)=C1O [L-(+)-ascorbic acid (Vitamin C), L-(+)-ascorbic acid]
DPPH free radical scavenging IC50: 0.01 % (v/v)
